Assays:
[1] = biological target: T1, 5-hydroxytryptamine receptor 2C (Homo sapiens) (UniProt P28335); assay: Agonist activity at unedited 5-HT2C receptor (unknown origin) expressed in HEK293 cells assessed as [3H]inositol phosphate accumulation at 10 uM after 2 hrs by scintillation counting relative to serotonin; assay type: functional, cell-based
T1 sequence (whole entry): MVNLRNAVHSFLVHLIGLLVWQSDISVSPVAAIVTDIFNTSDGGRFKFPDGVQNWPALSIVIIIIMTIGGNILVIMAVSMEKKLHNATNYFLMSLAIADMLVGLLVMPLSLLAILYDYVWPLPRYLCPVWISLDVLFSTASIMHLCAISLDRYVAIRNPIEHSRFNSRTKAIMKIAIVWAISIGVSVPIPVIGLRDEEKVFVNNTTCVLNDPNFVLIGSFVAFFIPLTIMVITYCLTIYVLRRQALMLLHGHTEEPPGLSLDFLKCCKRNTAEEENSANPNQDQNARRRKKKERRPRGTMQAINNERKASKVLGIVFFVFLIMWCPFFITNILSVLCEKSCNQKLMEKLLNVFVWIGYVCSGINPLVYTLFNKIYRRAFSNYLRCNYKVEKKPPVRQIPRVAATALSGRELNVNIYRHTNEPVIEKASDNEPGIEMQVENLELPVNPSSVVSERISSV

[2] = biological target: T2, 5-hydroxytryptamine receptor 2B (Homo sapiens, UniProt P41595); assay: Agonist activity at 5-HT2B receptor (unknown origin) expressed in HEK293 cells assessed as [3H]inositol phosphate accumulation after 2 hrs by scintillation counting; assay type: cell-based
[3] = biological target: T3, 5-hydroxytryptamine receptor 2C (Homo sapiens, UniProt P28335); assay: Agonist activity at unedited 5-HT2C receptor (unknown origin) expressed in HEK293 cells assessed as [3H]inositol phosphate accumulation after 2 hrs by scintillation counting; assay type: functional, cell-based
T3 sequence (P28335 whole entry): T1 sequence (whole entry)

[4] = biological target: T4, 5-hydroxytryptamine receptor 2A (Homo sapiens, UniProt P28223); assay: Agonist activity at 5-HT2A receptor (unknown origin) expressed in HEK293 cells assessed as [3H]inositol phosphate accumulation after 2 hrs by scintillation counting; assay type: cell-based
5-HT2B receptor = 5-HT2B receptor (Homo sapiens, UniProt P41595); assay: Agonist activity at 5-HT2B receptor (unknown origin) expressed in HEK293 cells assessed as [3H]inositol phosphate accumulation at 10 uM after 2 hrs by scintillation counting relative to serotonin; assay type: cell-based; settings: HEK293 cells expressing 5-HT2B receptor
5-HT2A receptor = 5-HT2A receptor (Homo sapiens, UniProt P28223); assay: Agonist activity at 5-HT2A receptor (unknown origin) expressed in HEK293 cells assessed as [3H]inositol phosphate accumulation at 10 uM after 2 hrs by scintillation counting relative to serotonin; assay type: cell-based; settings: HEK293 cells expressing 5-HT2A receptor
[5] = biological target: T2, 5-hydroxytryptamine receptor 2B; assay: Displacement of [125I]DOI from recombinant human 5-HT2B receptor expressed in HEK293 cell membranes after 1 hr by scintillation counting
[6] = biological target: T4, 5-hydroxytryptamine receptor 2A; assay: Displacement of [125I]DOI from recombinant human 5-HT2A receptor expressed in HEK293 cell membranes after 1 hr by scintillation counting
[7] = biological target: T3, 5-hydroxytryptamine receptor 2C; assay: Displacement of [125I]DOI from recombinant human 5-HT2C receptor expressed in HEK293 cell membranes after 1 hr by scintillation counting
Rattus norvegicus [8] = assay: Antiobesity activity in Sprague-Dawley rat assessed as reduction in food intake at 10 mg/kg, po administered via oral gavage 30 mins prior to food presentation measured 60 mins post drug administration; assay type: functional; design: scale not given: the % may be the effect or the level left
Rattus norvegicus [9] = assay: Antiobesity activity in Sprague-Dawley rat assessed as reduction in food intake at 5 mg/kg, po administered via oral gavage 30 mins prior to food presentation measured 60 mins post drug administration; assay type: functional; design: scale not given: the % may be the effect or the level left
Rattus norvegicus [10] = assay: Antiobesity activity in Sprague-Dawley rat assessed as reduction in food intake at 1 mg/kg, po administered via oral gavage 30 mins prior to food presentation measured 60 mins post drug administration; assay type: functional; design: scale not given: the % may be the effect or the level left
Rattus norvegicus [11] = assay: Antiobesity activity in Sprague-Dawley rat assessed as reduction in food intake at 3 mg/kg, po administered via oral gavage 30 mins prior to food presentation measured 60 mins post drug administration; assay type: functional; design: scale not given: the % may be the effect or the level left

Chain of 5-HT2A receptor (P28223 whole entry): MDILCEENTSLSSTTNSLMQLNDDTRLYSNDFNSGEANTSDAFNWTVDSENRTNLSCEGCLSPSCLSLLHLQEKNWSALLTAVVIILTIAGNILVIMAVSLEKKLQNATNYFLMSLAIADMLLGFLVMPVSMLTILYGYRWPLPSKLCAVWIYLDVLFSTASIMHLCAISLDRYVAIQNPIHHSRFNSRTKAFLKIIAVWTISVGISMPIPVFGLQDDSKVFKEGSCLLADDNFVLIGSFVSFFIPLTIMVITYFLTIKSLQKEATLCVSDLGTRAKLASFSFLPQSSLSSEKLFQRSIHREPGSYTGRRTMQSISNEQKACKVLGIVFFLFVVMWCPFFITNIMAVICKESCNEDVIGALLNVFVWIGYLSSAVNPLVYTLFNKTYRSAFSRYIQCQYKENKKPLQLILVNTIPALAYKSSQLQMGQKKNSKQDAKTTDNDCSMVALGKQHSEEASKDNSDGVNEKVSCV
T4 sequence (P28223 whole entry): as above
T2 sequence (P41595 whole entry): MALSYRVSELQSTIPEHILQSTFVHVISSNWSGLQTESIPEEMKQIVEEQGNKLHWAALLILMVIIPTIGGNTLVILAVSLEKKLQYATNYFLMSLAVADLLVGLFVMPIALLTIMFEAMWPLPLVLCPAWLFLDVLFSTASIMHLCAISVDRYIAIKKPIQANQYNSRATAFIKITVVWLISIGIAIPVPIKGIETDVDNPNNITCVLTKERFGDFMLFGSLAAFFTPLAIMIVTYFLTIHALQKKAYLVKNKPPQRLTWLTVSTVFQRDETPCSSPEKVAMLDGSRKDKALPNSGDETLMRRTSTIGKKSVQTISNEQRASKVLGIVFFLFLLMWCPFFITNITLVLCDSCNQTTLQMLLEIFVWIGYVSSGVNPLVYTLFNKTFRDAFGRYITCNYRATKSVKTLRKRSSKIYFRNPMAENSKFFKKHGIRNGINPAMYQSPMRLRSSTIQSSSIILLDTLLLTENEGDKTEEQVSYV
Chain of 5-HT2B receptor (P41595 whole entry): as above

| Structure (SMILES) | Emax [1] [%] | EC50 [2] [nM] | EC50 ([3]; read-out: pEC50 (converted)) [nM] | Emax at 2 h, 10 µM (5-HT2B receptor) [%] | further results |
| --- | --- | --- | --- | --- | --- |
| c1cc(CC2CCC2)c2c(c1)N1CCCNCC1CC2 (stereo unspecified) | 116 | > 1000 | 126 | – | – |
| c1ccc2c(c1)CC[C@H]1CCNCCCN21 | – | > 10000 | > 10000 | – | – |
| COc1cc2c(cc1Cc1ccccc1)CC[C@@H]1CNCCCN21 | – | > 1000 | > 1000 | – | – |
| c1ccc(Cc2cccc3c2CCC2CNCCN32)cc1 (stereo unspecified) | 104 | 2510 | 1.58 | 20 | EC50 [4]: 126 nM; Emax at 2 h, 10 µM (5-HT2A receptor): 85%; Ki [5]: 39.8 nM; Ki [6]: 1.58 nM; Ki [7]: 0.631 nM |
| c1ccc2c(c1)CC[C@@H]1CNCCN21 | 97 | 63.1 | 2.51 | 28 | – |
| CC1(C)Cc2ccccc2N2CCNCC21 (stereo unspecified) | – | > 1000 | > 1000 | – | – |
| CCCc1ccc2c(c1)N1CCNCC1CC2 (stereo unspecified) | 87 | 200 | 63.1 | 19 | – |
| Fc1ccc2c(c1Cc1ccccc1)CCC1CNCCN21 (stereo unspecified) | 102 | 631 | 1 | 32 | EC50 [4]: 100 nM; Emax at 2 h, 10 µM (5-HT2A receptor): 114%; Ki [5]: 12.6 nM; Ki [6]: 0.631 nM; Ki [7]: 0.398 nM |
| c1csc(Cc2cccc3c2CCC2CNCCN32)c1 (stereo unspecified) | 106 | 398 | 0.794 | 24 | EC50 [4]: 79.4 nM; Emax at 2 h, 10 µM (5-HT2A receptor): 94%; Ki [5]: 25.1 nM; Ki [6]: 25.1 nM; Ki [7]: 0.316 nM |
| COc1cccc2c1N1CCCNC[C@H]1CC2 | 17 | 100 | 31.6 | 55 | – |
| Fc1ccc2c(c1)CC[C@@H]1CNCCCN21 | 94 | 631 | 25.1 | 59 | – |
| CC1(C)CC2CNCCN2c2ccccc21 (stereo unspecified) | 84 | > 10000 | 1260 | – | – |
| c1cc(CC2CCC2)c2c(c1)N1CCNCC1CC2 (stereo unspecified) | 106 | 2000 | 3.16 | 31 | Activity (Rattus norvegicus [8]): 99%; EC50 [4]: 2000 nM; Activity (Rattus norvegicus [9]): 63%; Activity (Rattus norvegicus [10]): 27%; Emax at 2 h, 10 µM (5-HT2A receptor): 135%; Ki [5]: 63.1 nM; Ki [6]: 7.94 nM; Ki [7]: 0.631 nM |
| CCCc1ccc2c(c1)CCC1CNCCN21 (stereo unspecified) | 100 | 631 | 20 | 9 | – |
| COc1cccc2c1CC[C@@H]1CNCCCN21 | 92 | 398 | 1000 | 74 | – |
| COc1ccc2c(c1)N1CCCNC[C@H]1CC2 | 95 | 631 | 79.4 | 37 | – |
| c1ccc(-c2cccc3c2CCC2CNCCN32)cc1 (stereo unspecified) | 97 | 2510 | 126 | 72 | – |
| c1ccc2c(c1)CCC1CCNCCCN21 (stereo unspecified) | 99 | 1000 | – | 60 | EC50 ([3]; read-out: EC50): 130 nM |
| COCc1cccc2c1CCC1CNCCN21 (stereo unspecified) | 113 | 1260 | 20 | 77 | – |
| COc1ccc2c(c1)CC[C@@H]1CNCCCN21 | 80 | 1260 | 631 | 76 | – |
| Clc1ccc2c(c1)CCC1CCNCCCN21 (stereo unspecified) | 83 | 631 | 200 | 71 | – |

| Structure (SMILES) | Emax [1] [%] | EC50 [2] [nM] | EC50 ([3]; read-out: pEC50 (converted)) [nM] | Emax at 2 h, 10 µM (5-HT2B receptor) [%] | further results |
| --- | --- | --- | --- | --- | --- |
| COc1ccc2c(c1Cl)N1CCCNC[C@H]1CC2 | 72 | 7.94 | 158 | 7 | – |
| Clc1cccc(N2CCNCC2)c1 [CHLOROPHENYLPIPERAZINE] | 90 | – | – | 22 | Emax at 2 h, 10 µM (5-HT2A receptor): 12% |
| CCCc1cccc2c1CCC1CNCCN21 (stereo unspecified) | 101 | 200 | 0.2 | 80 | EC50 [4]: 501 nM; Activity (Rattus norvegicus [10]): 66%; Emax at 2 h, 10 µM (5-HT2A receptor): 104%; Ki [5]: 25.1 nM; Ki [6]: 6.31 nM; Activity (Rattus norvegicus [11]): 99%; Ki [7]: 0.398 nM |
| Cc1cccc2c1N1CCNCC1CC2 (stereo unspecified) | 86 | 50.1 | 63.1 | 10 | – |
| c1cc(Cc2ccc3c(c2)OCO3)c2c(c1)N1CCNCC1CC2 (stereo unspecified) | 100 | 3980 | 6.31 | 26 | EC50 [4]: 200 nM; Emax at 2 h, 10 µM (5-HT2A receptor): 64%; Ki [5]: 126 nM; Ki [6]: 1.58 nM; Ki [7]: 0.794 nM |
| COc1cc2c(cc1Cl)N1CCCNC[C@H]1CC2 | 91 | 158 | 39.8 | 23 | – |
| Fc1ccc2c(c1)CCC1CNCCN21 (stereo unspecified) | 96 | 126 | 3.16 | 44 | – |
| Fc1ccc2c(c1Cl)N1CCNCC1CC2 (stereo unspecified) | 94 | 2 | 6.31 | 12 | – |
| c1ccc(Oc2cccc3c2CCC2CNCCN32)cc1 (stereo unspecified) | 112 | 6310 | 100 | 94 | – |
| Cc1cccc2c1CCC1CNCCN21 (stereo unspecified) | 108 | 31.6 | 2 | 65 | – |
| COc1cc2c(cc1Cl)CC[C@@H]1CNCCCN21 | 85 | 63.1 | 3.98 | 84 | – |
| COc1cc2c(c(Cl)c1Cl)N1CCCNC[C@H]1CC2 | 80 | – | 10 | < 5 | – |
| CC1(C)Cc2cccc(Cl)c2N2CCNCC21 (stereo unspecified) | – | 100 | > 10000 | 84 | EC50 [4]: > 10000 nM; Ki [5]: 6.31 nM; Ki [6]: 2000 nM; Ki [7]: 794 nM |
| CCSc1cccc2c1CCC1CNCCN21 (stereo unspecified) | 101 | 79.4 | 0.316 | 46 | – |
| Fc1ccc2c(c1)N1CCNCC1CC2 (stereo unspecified) | 100 | 31.6 | 0.794 | 38 | – |
| Clc1cccc2c1N1CCCNCCC1CC2 (stereo unspecified) | 85 | 100 | 25.1 | 20 | – |
| c1cc(OC2CCC2)c2c(c1)N1CCNCC1CC2 (stereo unspecified) | 98 | 794 | 20 | 9 | – |
| Fc1ccc2c(c1Cc1ccccc1)CC[C@@H]1CNCCCN21 | 108 | 7940 | 20 | 71 | – |
| c1cc(C2CCC2)c2c(c1)N1CCNCC1CC2 (stereo unspecified) | 110 | 39.8 | 3.16 | 112 | – |
| COc1ccc2c(c1)CCC1CNCCN21 (stereo unspecified) | 101 | 794 | 251 | 57 | – |
| c1ccc2c(c1)CC[C@@H]1CCNCCCN21 | 86 | 501 | 63.1 | 53 | – |

From ChEMBL document CHEMBL3871286, “Tetrahydroquinoline-based tricyclic amines as potent and selective agonists of the 5-HT2C receptor” (Bioorg Med Chem Lett, 2016)
